#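 Briefly, cells in 96-well plates were exposed to five compound concentrations for 48 h, and endpoints were estimated by linear interpolation. GI50 marks 50% less growth. TGI is the concentration that stops growth completely.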
# What was measured:
# Assay in all cases: DTP human tumour cell line panel, 48 h
# MOLT-4 leukemia = system: MOLT-4 leukemia
# K-562 leukemia = system: K-562 leukemia
# HCT-116 colon = system: HCT-116 colon
# U251 CNS = system: U251 CNS
# HT29 colon = system: HT29 colon
# RPMI-8226 leukemia = system: RPMI-8226 leukemia
# NCI-H226 lung = system: NCI-H226 lung
# OVCAR-8 ovarian = system: OVCAR-8 ovarian
# NCI-H23 lung = system: NCI-H23 lung
# SNB-75 CNS = system: SNB-75 CNS
# NCI/ADR-RES ovarian = system: NCI/ADR-RES ovarian
# HCT-15 colon = system: HCT-15 colon
# UACC-62 melanoma = system: UACC-62 melanoma
# OVCAR-4 ovarian = system: OVCAR-4 ovarian
# PC-3 prostate = system: PC-3 prostate
# NCI-H460 lung = system: NCI-H460 lung
# DU-145 prostate = system: DU-145 prostate
# TK-10 renal = system: TK-10 renal
# A549 NSCLC = system: A549 NSCLC
# LOX IMVI melanoma = system: LOX IMVI melanoma
# OVCAR-5 ovarian = system: OVCAR-5 ovarian
# SK-OV-3 ovarian = system: SK-OV-3 ovarian
# HL-60(TB) leukemia = system: HL-60(TB) leukemia
# SK-MEL-28 melanoma = system: SK-MEL-28 melanoma
# SK-MEL-5 melanoma = system: SK-MEL-5 melanoma
# SNB-19 CNS = system: SNB-19 CNS
# EKVX NSCLC = system: EKVX NSCLC
# SR leukemia = system: SR leukemia
# COLO 205 colon = system: COLO 205 colon
# IGROV1 ovarian = system: IGROV1 ovarian
# HCC-2998 colon = system: HCC-2998 colon
# CCRF-CEM leukemia = system: CCRF-CEM leukemia
# SF-268 CNS = system: SF-268 CNS
# UO-31 renal = system: UO-31 renal
# KM12 colon = system: KM12 colon
# MALME-3M melanoma = system: MALME-3M melanoma
# RXF 393 renal = system: RXF 393 renal
# SF-539 CNS = system: SF-539 CNS
# 786-0 renal = system: 786-0 renal
# SF-295 CNS = system: SF-295 CNS
# HS 578T breast = system: HS 578T breast
# CAKI-1 renal = system: CAKI-1 renal
# OVCAR-3 ovarian = system: OVCAR-3 ovarian
# SW-620 colon = system: SW-620 colon
# SN12C renal = system: SN12C renal
# MDA-MB-435 = system: MDA-MB-435
# A498 renal = system: A498 renal
# ACHN renal = system: ACHN renal
# NCI-H522 lung = system: NCI-H522 lung
# SK-MEL-2 melanoma = system: SK-MEL-2 melanoma
# UACC-257 melanoma = system: UACC-257 melanoma
# HOP-62 NSCLC = system: HOP-62 NSCLC
# BT-549 breast = system: BT-549 breast
# M14 melanoma = system: M14 melanoma
# MDA-MB-231 breast = system: MDA-MB-231 breast
# HOP-92 NSCLC = system: HOP-92 NSCLC
# MCF7 breast = system: MCF7 breast
compound,measurement,setting,value
Cc1ccc(C2CC3(c4ccccc4)ON=C(c4ccccc4)N3c3ccccc3S2)cc1 (centres undefined),GI50,MOLT-4 leukemia,38900 nM
same,GI50,K-562 leukemia,38500 nM
same,GI50,HCT-116 colon,8080 nM
same,GI50,U251 CNS,20600 nM
C=C1C(=O)O[C@H]2[C@H]1CC/C(Cn1cc(-c3cccc(Cl)c3)nn1)=C\CC[C@@]1(C)O[C@@H]21,GI50,HT29 colon,510 nM
same,TGI,HT29 colon,1730 nM
same,GI50,RPMI-8226 leukemia,506 nM
same,TGI,RPMI-8226 leukemia,3360 nM
same,GI50,NCI-H226 lung,1710 nM
same,TGI,NCI-H226 lung,3750 nM
same,GI50,OVCAR-8 ovarian,1310 nM
same,TGI,OVCAR-8 ovarian,2850 nM
same,GI50,NCI-H23 lung,1580 nM
same,TGI,NCI-H23 lung,3270 nM
same,GI50,SNB-75 CNS,1160 nM
same,TGI,SNB-75 CNS,2390 nM
same,GI50,NCI/ADR-RES ovarian,2390 nM
same,TGI,NCI/ADR-RES ovarian,8390 nM
same,GI50,HCT-15 colon,192 nM
same,TGI,HCT-15 colon,479 nM
same,GI50,MOLT-4 leukemia,310 nM
same,TGI,MOLT-4 leukemia,1250 nM
same,GI50,UACC-62 melanoma,625 nM
same,TGI,UACC-62 melanoma,2080 nM
same,GI50,OVCAR-4 ovarian,1090 nM
same,TGI,OVCAR-4 ovarian,2440 nM
same,GI50,PC-3 prostate,1980 nM
same,TGI,PC-3 prostate,3770 nM
same,GI50,NCI-H460 lung,2130 nM
same,TGI,NCI-H460 lung,4520 nM
same,GI50,DU-145 prostate,1000 nM
same,TGI,DU-145 prostate,2160 nM
same,GI50,TK-10 renal,992 nM
same,TGI,TK-10 renal,2150 nM
same,GI50,A549 NSCLC,1790 nM
same,TGI,A549 NSCLC,3570 nM
same,GI50,LOX IMVI melanoma,285 nM
same,TGI,LOX IMVI melanoma,898 nM
same,GI50,OVCAR-5 ovarian,1210 nM
same,TGI,OVCAR-5 ovarian,2780 nM
same,GI50,SK-OV-3 ovarian,3670 nM
same,TGI,SK-OV-3 ovarian,11200 nM
same,GI50,HL-60(TB) leukemia,332 nM
same,TGI,HL-60(TB) leukemia,1310 nM
same,GI50,K-562 leukemia,405 nM
same,TGI,K-562 leukemia,2440 nM
same,GI50,SK-MEL-28 melanoma,351 nM
same,TGI,SK-MEL-28 melanoma,1270 nM
same,GI50,SK-MEL-5 melanoma,1700 nM
same,TGI,SK-MEL-5 melanoma,3080 nM
same,GI50,SNB-19 CNS,2400 nM
same,TGI,SNB-19 CNS,6450 nM
same,GI50,EKVX NSCLC,1570 nM
same,TGI,EKVX NSCLC,2920 nM
same,GI50,SR leukemia,231 nM
same,TGI,SR leukemia,886 nM
same,GI50,COLO 205 colon,417 nM
same,TGI,COLO 205 colon,1690 nM
same,GI50,IGROV1 ovarian,730 nM
same,TGI,IGROV1 ovarian,2410 nM
same,GI50,HCC-2998 colon,1640 nM
same,TGI,HCC-2998 colon,3290 nM
same,GI50,CCRF-CEM leukemia,200 nM
same,TGI,CCRF-CEM leukemia,685 nM
same,GI50,SF-268 CNS,1590 nM
same,TGI,SF-268 CNS,3460 nM
same,GI50,UO-31 renal,1080 nM
same,TGI,UO-31 renal,2310 nM
same,GI50,KM12 colon,1780 nM
same,TGI,KM12 colon,3740 nM
same,GI50,MALME-3M melanoma,1200 nM
same,TGI,MALME-3M melanoma,2920 nM
same,GI50,RXF 393 renal,558 nM
same,TGI,RXF 393 renal,1850 nM
same,GI50,SF-539 CNS,258 nM
same,TGI,SF-539 CNS,791 nM
same,GI50,786-0 renal,506 nM
same,TGI,786-0 renal,1870 nM
same,GI50,SF-295 CNS,3410 nM
same,TGI,SF-295 CNS,13000 nM
same,GI50,HS 578T breast,2260 nM
same,TGI,HS 578T breast,5560 nM
same,GI50,CAKI-1 renal,869 nM
same,TGI,CAKI-1 renal,2130 nM
same,GI50,OVCAR-3 ovarian,475 nM
same,TGI,OVCAR-3 ovarian,1630 nM
same,GI50,SW-620 colon,330 nM
same,TGI,SW-620 colon,1200 nM
same,GI50,SN12C renal,1400 nM
same,TGI,SN12C renal,3350 nM
same,GI50,MDA-MB-435,591 nM
same,TGI,MDA-MB-435,1980 nM
same,GI50,A498 renal,1520 nM
same,TGI,A498 renal,2970 nM
same,GI50,ACHN renal,184 nM
same,TGI,ACHN renal,355 nM
same,GI50,NCI-H522 lung,291 nM
same,TGI,NCI-H522 lung,1090 nM
same,GI50,HCT-116 colon,163 nM
same,TGI,HCT-116 colon,377 nM
same,GI50,SK-MEL-2 melanoma,1660 nM
same,TGI,SK-MEL-2 melanoma,3280 nM
same,GI50,UACC-257 melanoma,1420 nM
same,TGI,UACC-257 melanoma,2800 nM
same,GI50,U251 CNS,1610 nM
same,TGI,U251 CNS,3010 nM
same,GI50,HOP-62 NSCLC,1940 nM
same,TGI,HOP-62 NSCLC,3680 nM
same,GI50,BT-549 breast,778 nM
same,TGI,BT-549 breast,2100 nM
same,GI50,M14 melanoma,798 nM
same,TGI,M14 melanoma,2200 nM
same,GI50,MDA-MB-231 breast,1090 nM
same,TGI,MDA-MB-231 breast,2910 nM
same,GI50,HOP-92 NSCLC,257 nM
same,TGI,HOP-92 NSCLC,842 nM
COC(=O)C1(C)CC2C(C)(CCC3(C)C4=CC=C5C(=CC(=O)C(O)=C5C)C4(C)CCC23C)CC1O (centres undefined),TGI,HT29 colon,2530 nM
same,TGI,NCI-H226 lung,4460 nM
same,TGI,OVCAR-8 ovarian,2380 nM
same,TGI,SNB-75 CNS,3540 nM
same,TGI,NCI/ADR-RES ovarian,2930 nM
same,TGI,MOLT-4 leukemia,931 nM
same,TGI,UACC-62 melanoma,2320 nM
same,TGI,OVCAR-4 ovarian,3400 nM
same,TGI,MCF7 breast,2860 nM
same,TGI,PC-3 prostate,3120 nM
same,TGI,DU-145 prostate,2710 nM
same,TGI,TK-10 renal,1590 nM
same,TGI,A549 NSCLC,4940 nM
same,TGI,OVCAR-5 ovarian,3320 nM
same,TGI,SK-OV-3 ovarian,4130 nM
same,TGI,HL-60(TB) leukemia,771 nM
same,TGI,SK-MEL-28 melanoma,2100 nM
same,TGI,SK-MEL-5 melanoma,3280 nM
same,TGI,SNB-19 CNS,2810 nM
same,TGI,EKVX NSCLC,2700 nM
same,TGI,SR leukemia,575 nM
same,TGI,COLO 205 colon,1720 nM
same,TGI,IGROV1 ovarian,1180 nM
same,TGI,HCC-2998 colon,2900 nM
same,TGI,CCRF-CEM leukemia,538 nM
same,TGI,SF-268 CNS,2630 nM
same,TGI,UO-31 renal,3190 nM
same,TGI,KM12 colon,4090 nM
same,TGI,MALME-3M melanoma,2240 nM
same,TGI,RXF 393 renal,1370 nM
same,TGI,SF-539 CNS,3300 nM
same,TGI,786-0 renal,477 nM
same,TGI,SF-295 CNS,3430 nM
same,TGI,HS 578T breast,14400 nM
same,TGI,CAKI-1 renal,2270 nM
same,TGI,OVCAR-3 ovarian,2240 nM
same,TGI,SN12C renal,3330 nM
same,TGI,MDA-MB-435,2310 nM
same,TGI,A498 renal,3510 nM
same,TGI,ACHN renal,1530 nM
same,TGI,NCI-H522 lung,540 nM
same,TGI,HCT-116 colon,1890 nM
same,TGI,SK-MEL-2 melanoma,2940 nM
same,TGI,UACC-257 melanoma,4280 nM
same,TGI,HOP-62 NSCLC,3510 nM
same,TGI,M14 melanoma,3260 nM
same,TGI,MDA-MB-231 breast,1770 nM
same,TGI,HOP-92 NSCLC,2820 nM

# From PubChem BioAssay (NCI)
